The target of the experiment is T1, Human 11βHSD1 (Homo sapiens, UniProt P28845).
T1 construct: the enzyme source, native hepatic enzyme compared to recombinant enzyme; tissue XenoTech H0610/Lot 0210078; host or cells: human hepatic microsomes
Nature of the experiment: 11β HSD1 cortisol radioimmunoassay (RIA) with human hepatic microsomes. To be noted: read-out: % inhibition of Human 11βHSD1 @ 10 μM. The class given is biochemical. Here is the method: Biological Assay Development Using Human 11β-Hydroxysteroid Dehydrogenase Type 1. Standard Operating Procedure for the 11β-Hydroxysteroid Dehydrogenase Type 1 Cortisol Radioimmunoassay. 11β HSD1 Cortisol RIA
Enzyme assay buffer: 30 mM Tris-HCL, pH 7.2 containing 1 mM EDTA
Antibody binding buffer: 50 mM Tris-HCL, pH 8, containing 0.1 M NaCl and 0.1% gelatin
Dilute into assay buffer 1 in 25. Also dilute neat DMSO 1 in 25 into assay buffer for controls.
Dilute this 1 in 50 into assay buffer.
Prepare NADPH as a 1.8 mg/ml solution in assay buffer.
Mix these 3 solutions 1:1:1 to make a solution of sufficient volume for 25 μl additions to each sample. Add 0.5 μCi tritiated cortisone per 25 μl and mix the solution well.
Microsome preparation: Dilute stock 20 mg/ml solution 1 in 100 with assay buffer.
Dextran coated charcoal preparation: Make a 20 mg/ml solution in antibody binding buffer and chill on ice.
Enzyme assay: To a u-bottom polypropylene 96 well plate add:
25 μl compound dilution or diluted DMSO to controls, NSB's and blanks
10 μl 1 mM GA in DMSO (enzyme stop solution) to blanks
25 μl substrate mixture to all samples
50 μl diluted microsomes to all samples
Incubate plate for 30 min at 37° C. shaking
Add 10 μl enzyme stop solution to all wells except the blanks
Add 100 μl antibody solution to all wells except the NSB's, add antibody binding buffer to these wells
Incubate at 37° C. for 1 h
Chill plate on ice for 15 min
Add 50 μl/well charcoal solution and mix with an 8-channel pipette (4-5 aspirations)
Centrifuge at 4° C., 2000×g for 15 min
Transfer 100 μl supernatant into an Optiplate, also add 25 μl substrate mixture to 2 empty wells to indicate counting efficiency
Add 200 μl Microscint-40 to all wells and count on a Topcount
The 11β HSD1 enzyme assay was carried out following the standard operating procedure described above in u-bottom polypropylene 96 well plates or 1.5 ml Eppendorf tubes as indicated for each experiment. Subsequent to stopping the enzyme reaction, 100 μl antibody prepared in buffer 3 unless otherwise indicated was added to test samples and 100 μl buffer 3 was added to the NSB samples. The samples were incubated for 1 hour at 37° C. and the chilled on ice for 15 mins. Dextran coated charcoal (50 μl/sample) prepared to the indicated concentration in buffer 3 was added and the samples were mixed (vortex for tubes and aspiration 5 times with an 8-channel pipette for 96 well plates) and chilled for a further 10 min. The samples were centrifuged at 2000×g for 15 min at 4° C. to pellet the charcoal. Aliquots of the supernatant (100 μl) were transferred to an Optiplate and counted on the Topcount in 150-200 μl Microscint 40. In some experiments, aliquots of supernatant were transferred to scintillation vials and counted on the Tricarb LSC in 5 ml Ultima Gold scintillant.
Substrate saturation was examined. The enzyme assay was carried out exactly described in the methods section, in Buffer 3 with 10 μg/well microsomal protein and with [cold cortisone] as indicated. [3H]-cortisone was 0.5 μCi/sample throughout. The reaction was stopped after 30 min by the addition of 10 μl stop solution. The RIA was carried out exactly as indicated in the methods section.
It is reported that DMSO can both increase and reduce microsomal enzyme activity, depending on the concentration, presumably due to effects on the microsomal membranes.

The structures appear in SMILES notation.

One may read the inhibition as the drop in the measured response relative to a control, in per cent.

T1 sequence (P28845 whole entry): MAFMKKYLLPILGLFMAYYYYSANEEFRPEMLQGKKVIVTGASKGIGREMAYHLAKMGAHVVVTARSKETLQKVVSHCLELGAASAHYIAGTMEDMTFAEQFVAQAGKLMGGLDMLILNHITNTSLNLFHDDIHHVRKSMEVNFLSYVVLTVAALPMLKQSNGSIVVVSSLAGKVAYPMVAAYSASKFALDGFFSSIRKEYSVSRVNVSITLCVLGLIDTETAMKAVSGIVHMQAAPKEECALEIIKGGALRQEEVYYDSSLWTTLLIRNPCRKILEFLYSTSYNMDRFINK

As to `Cc1c(Cl)cccc1S(=O)(=O)N(C)c1ccc2c(c1)sc(=O)n2C` [compound 831], the inhibition at 10 µM is 28%.

Take `Cc1c(Cl)cccc1S(=O)(=O)Nc1ccc2nc(C)n(C)c2c1` [compound 975]: the inhibition at 10 µM stood at 45%.

As for `Cc1c(Cl)cccc1S(=O)(=O)Nc1ccc2c(c1)nc(C)n2C` [compound 976], the inhibition at 10 µM stood at 110%.

For `CCOC(=O)Cn1c(C)nc2ccc(NS(=O)(=O)c3cccc(Cl)c3C)cc21` [compound 977], the inhibition at 10 µM is 61%.

For `CCOC(=O)Cn1c(C)nc2cc(NS(=O)(=O)c3cccc(Cl)c3C)ccc21` [compound 978], the inhibition at 10 µM was determined as 60%.

Turning to `Cc1c(Cl)cccc1S(=O)(=O)Nc1ccc2[nH]ccc2c1` [compound 981], the inhibition at 10 µM was 40%.

As for `Cc1c(Cl)cccc1S(=O)(=O)Nc1ccc2cc[nH]c2c1` [compound 982], the inhibition at 10 µM was 53%.

On to `CC(=O)N1CCc2cc(NS(=O)(=O)c3cccc(Cl)c3C)ccc21` [compound 984], for which the inhibition at 10 µM stood at 73%.

`Cc1nc2cc(NS(=O)(=O)c3cccc(Cl)c3C)ccc2[nH]1` [compound 985]: the inhibition at 10 µM amounted to 61%.

Take `CCOC(=O)c1cc2cc(NS(=O)(=O)c3cccc(Cl)c3C)ccc2[nH]1` [compound 986]: the inhibition at 10 µM was 65%.

As for `CCN1CCc2cc(NS(=O)(=O)c3cccc(Cl)c3C)ccc21` [compound 987], the inhibition at 10 µM came to 62%.

For `COc1ccc2nc(C)sc2c1NS(=O)(=O)c1cccc(Cl)c1C` [compound 989], the inhibition at 10 µM amounted to 45%.

Take `Cc1nc2c(Cl)c(N(S(=O)(=O)c3cccc(Cl)c3C)S(=O)(=O)c3cccc(C)c3Cl)ccc2s1` [compound 991]: the inhibition at 10 µM was found to be 51%.

In the case of `Cc1nc2c(Cl)c(NS(=O)(=O)c3cccc(Cl)c3C)ccc2s1` [compound 992], the inhibition at 10 µM amounted to 61%.

Take `CCCc1ccc(S(=O)(=O)Nc2ccc3sc(C)nc3c2Cl)cc1` [compound 994]: the inhibition at 10 µM was determined as 83%.

As for `CCCc1ccc(S(=O)(=O)N(c2ccc3sc(C)nc3c2Cl)S(=O)(=O)c2ccc(CCC)cc2)cc1` [compound 995], the inhibition at 10 µM came to 68%.

On to `Cc1nc2c(NS(=O)(=O)c3cccc(Cl)c3C)c(C)ccc2s1` [compound 996], for which the inhibition at 10 µM was 63%.

With `Cc1nc2cc(C)c(N(S(=O)(=O)c3cccc(Cl)c3C)S(=O)(=O)c3cccc(Cl)c3C)cc2s1` [compound 997], the inhibition at 10 µM stood at 51%.

On to `Cc1nc2cc(C)c(NS(=O)(=O)c3cccc(Cl)c3C)cc2s1` [compound 998], for which the inhibition at 10 µM turned out to be 58%.

Consider `Cc1nc2cc(C)c(NS(=O)(=O)c3cc(Cl)ccc3Cl)cc2s1` [compound 999], for which the inhibition at 10 µM came to 55%.

With `Cc1nc2c(Cl)c(NS(=O)(=O)c3cccc(Cl)c3C)c(Cl)cc2s1` [compound 1017], the inhibition at 10 µM is 60%.

With `Cc1[nH]c2ccc(NS(=O)(=O)c3cccc(Cl)c3C)cc2c1C` [compound 1018], the inhibition at 10 µM came out at 66%.

As to `Cc1[nH]c2ccc(NS(=O)(=O)c3cc(Cl)ccc3Cl)cc2c1C` [compound 1019], the inhibition at 10 µM worked out at 61%.

On to `CCCc1ccc(S(=O)(=O)Nc2ccc3[nH]c(C)c(C)c3c2)cc1` [compound 1020], for which the inhibition at 10 µM amounted to 64%.

On to `Cc1nc2ccc(C)c(NS(=O)(=O)c3cccc(Cl)c3C)c2s1` [compound 1021], for which the inhibition at 10 µM is 54%.

In the case of `Cc1nc2cc(CNS(=O)(=O)c3cccc(Cl)c3C)ccc2s1` [compound 1029], the inhibition at 10 µM turned out to be 78%.

Regarding `Cc1nc2cc(CN(Cc3ccc4sc(C)nc4c3)S(=O)(=O)c3cccc(Cl)c3C)ccc2s1` [compound 1030], the inhibition at 10 µM worked out at 61%.

(Values after patent US7786152B2, “Compound” (priority 2002, dated 2010).)
